# Source: patent US9150899B2, “Identification of compounds modifying a cellular response” (2cureX, priority 2004, dated 2015)
# Non-standard residues stand in square brackets, D forms with d. No end group written: not given here.
# Test system: GFP expressing U2OS cells and GFP expressing Hek293 cells
# Assay: Screening of adhesion D-amino peptide library for low fluorescence/high adherence properties
# Assay type: cell-based, Human
# Settings: re-synthesized adhesion peptides on PEGA beads; six re-synthesized plus four additional peptides compared
# Experimental: Approx. 100 adhesion peptide library beads were mixed with 1×10E6 cells (BHK, CHO, U2OS, Hek) in each well of a Falcon 12 well plate using 2 ml growth medium. The adhesion peptide library was prepared according to the general methods for solid phase peptide synthesis outlined above. The library consisted of heptamers of D-amino acids. The peptide library beads were PEGA beads each coupled to a potential adhesion peptide. The cells and beads were mixed gently every 15 min for 2 hrs. Supernatant with non-attached cells were removed and new growth medium added. Cells/beads were incubating for another 16 hrs. (37° C., 5% CO2). Cell adhesive beads were identified using a microscope with 10× objective and positive beads were transferred to a filter paper (to suck off medium). Peptides were identified by amino acid sequencing.
# An adhesion D-amino peptide library was synthesized (500.000 members) as described above in Example 2a and screened for low fluorescence/high adherence properties. This was done in 4 steps: • 1) Selection of low fluorescent beads by Fluorescence Activated Bead Sorting (FABS). […]
# The 150.000 low fluorescent beads were incubated with GFP expressing U2OS cells followed by FABS sorting for high fluorescence (high cell adhesion). […] 47 beads with high cell adhesion properties were isolated using a fluorescence microscope. • 4) Sequence elucidation and re-synthesis of selected peptides. […]
substance,measurement,value
SEQ ID 35: adhesion peptide arg gln arg ile arg (D-amino acids) ([dR][dQ][dR][dI][dR]),overall performance (low fluorescence/high adherence properties),best overall performance
